# Laboratory results published in ChEMBL document CHEMBL1201862, “PubChem BioAssay data set” (2004).
#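 Following 48 hours of exposure in 96-well plates, responses at five concentrations were used to interpolate endpoints linearly. GI50: concentration for 50% inhibition of growth.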 Calls of active or inactive are those of the source. Cut-off read from the data, not from the text of the source: active = GI50 up to about 1.1 µM and inactive = higher.
# Experiments:
# Test in all cases: NCI tumour cell line growth inhibition, 48 h
# HOP-92 = tested on: HOP-92
# UO-31 = tested on: UO-31
# K562 = tested on: K562
# BT-549 = tested on: BT-549
# SNB-19 = tested on: SNB-19
# MCF7 = tested on: MCF7
# NCI-H23 = tested on: NCI-H23
# IGROV-1 = tested on: IGROV-1
# SF-295 = tested on: SF-295
# SK-MEL-2 = tested on: SK-MEL-2
# HT-29 = tested on: HT-29
# MOLT-4 = tested on: MOLT-4
# T47D = tested on: T47D
# A549 = tested on: A549
# RPMI-8226 = tested on: RPMI-8226
# CCRF-CEM = tested on: CCRF-CEM
# UACC-62 = tested on: UACC-62
# A498 = tested on: A498
Structure (SMILES),GI50 (HOP-92),GI50 (UO-31),GI50 (K562),GI50 (BT-549),GI50 (SNB-19),GI50 (MCF7),GI50 (NCI-H23),GI50 (IGROV-1),GI50 (SF-295),GI50 (SK-MEL-2),GI50 (HT-29),GI50 (MOLT-4),GI50 (T47D),GI50 (A549),GI50 (RPMI-8226),GI50 (CCRF-CEM),GI50 (UACC-62),GI50 (A498)
COC(=O)c1cc(C#Cc2cc(OC)ccc2OC)ccc1OC,22.9 µM (inactive),40.1 µM (inactive),< 0.01 µM (active),37.7 µM (inactive),> 100 µM (inactive),36.5 µM (inactive),41.4 µM (inactive),53.2 µM (inactive),< 0.01 µM (active),43.5 µM (inactive),38.5 µM (inactive),19.3 µM (inactive),2.04 µM (inactive),34.8 µM (inactive),13.9 µM (inactive),–,–,–
C[n+]1ccc2/c(=C\C#N)c3ccccc3n21,22.4 µM (inactive),> 100 µM (inactive),61.2 µM (inactive),16.6 µM (inactive),4.27 µM (inactive),20.5 µM (inactive),11.4 µM (inactive),23.9 µM (inactive),33.7 µM (inactive),30.8 µM (inactive),22.9 µM (inactive),30.8 µM (inactive),5.65 µM (inactive),19.1 µM (inactive),11.8 µM (inactive),20 µM (inactive),34.8 µM (inactive),–
COC(=S)OC1CC(n2cnc3c(=O)[nH]cnc32)OC1CO[Si](C)(C)C(C)(C)C (stereo not drawn),> 100 µM (inactive),–,> 100 µM (inactive),–,> 100 µM (inactive),> 100 µM (inactive),> 100 µM (inactive),> 100 µM (inactive),> 100 µM (inactive),> 100 µM (inactive),> 100 µM (inactive),> 100 µM (inactive),–,> 100 µM (inactive),> 100 µM (inactive),> 100 µM (inactive),> 100 µM (inactive),> 100 µM (inactive)
CN(C)CCCNC(=O)c1cc(NC(=O)c2cc(NC(=O)[C@H]3C[C@@H]3C(=O)Nc3cc(C(=O)Nc4cc(C(=O)NCCCN(C)C)n(C)c4)n(C)c3)cn2C)cn1C,3.24 µM (inactive),–,> 100 µM (inactive),> 100 µM (inactive),> 100 µM (inactive),> 100 µM (inactive),> 100 µM (inactive),> 100 µM (inactive),> 100 µM (inactive),> 100 µM (inactive),> 100 µM (inactive),> 100 µM (inactive),–,> 100 µM (inactive),> 100 µM (inactive),> 100 µM (inactive),–,–
O=C1OCCC12CN(Cc1ccccc1)N=N2 (stereo not drawn),> 100 µM (inactive),> 100 µM (inactive),> 100 µM (inactive),–,> 100 µM (inactive),> 100 µM (inactive),> 100 µM (inactive),–,> 100 µM (inactive),> 100 µM (inactive),> 100 µM (inactive),> 100 µM (inactive),> 100 µM (inactive),> 100 µM (inactive),> 100 µM (inactive),–,> 100 µM (inactive),> 100 µM (inactive)
C[C@H](NC1=CC(=O)C(N[C@@H](C)[C@H](O)c2ccccc2)=CC1=O)[C@H](O)c1ccccc1,> 100 µM (inactive),64 µM (inactive),> 100 µM (inactive),52.8 µM (inactive),> 100 µM (inactive),–,67 µM (inactive),> 100 µM (inactive),70.1 µM (inactive),> 100 µM (inactive),27.3 µM (inactive),37.2 µM (inactive),53.1 µM (inactive),95.3 µM (inactive),> 100 µM (inactive),57.8 µM (inactive),87.9 µM (inactive),> 100 µM (inactive)
CCCCn1c2c(n(CCCC)c1=[Se])-c1c(n(CCCC)c(=[Se])n1CCCC)S[Se][Se]S2,2.01 µM (inactive),14.1 µM (inactive),9.84 µM (inactive),27.7 µM (inactive),17 µM (inactive),25.4 µM (inactive),25.1 µM (inactive),7.1 µM (inactive),4.55 µM (inactive),18 µM (inactive),26.5 µM (inactive),12.6 µM (inactive),–,20.7 µM (inactive),16.8 µM (inactive),3.78 µM (inactive),17.8 µM (inactive),33.5 µM (inactive)
O=C1c2cc(Cc3ccccc3)c(=O)c(Cc3ccccc3)cc2C(=O)c2cc(Cc3ccccc3)c(=O)c(Cc3ccccc3)cc21,> 100 µM (inactive),> 100 µM (inactive),89.9 µM (inactive),> 100 µM (inactive),> 100 µM (inactive),> 100 µM (inactive),> 100 µM (inactive),> 100 µM (inactive),> 100 µM (inactive),> 100 µM (inactive),> 100 µM (inactive),97.3 µM (inactive),–,> 100 µM (inactive),> 100 µM (inactive),74.5 µM (inactive),–,> 100 µM (inactive)
COc1ccc2c(c1)c1c3c(ccc4ncn2c43)N(CCN(C)C)CCN=1,1.49 µM (inactive),0.404 µM (active),0.0488 µM (active),–,0.405 µM (active),0.288 µM (active),0.968 µM (active),1.31 µM (inactive),0.494 µM (active),1.03 µM (active),0.135 µM (active),0.043 µM (active),1.52 µM (inactive),0.359 µM (active),1.48 µM (inactive),0.127 µM (active),1.23 µM (inactive),1.42 µM (inactive)
CCCCCCCCCCCCCOCCOCCOCCCCC(O)CCCCCCCCCC1=C[C@H](C)OC1=O (stereo partly drawn),–,16 µM (inactive),21.2 µM (inactive),11.1 µM (inactive),20.7 µM (inactive),10.1 µM (inactive),13.7 µM (inactive),18.1 µM (inactive),7.21 µM (inactive),23 µM (inactive),15.6 µM (inactive),7.59 µM (inactive),16.3 µM (inactive),7.55 µM (inactive),1.96 µM (inactive),9.86 µM (inactive),20 µM (inactive),–
COc1ccc(-c2c(C#N)c(-c3ccc(C)cc3)n(NS(=O)(=O)c3ccccc3)c(=O)c2C#N)cc1,38.8 µM (inactive),–,60.4 µM (inactive),25.2 µM (inactive),58.5 µM (inactive),28.9 µM (inactive),–,35.5 µM (inactive),32.7 µM (inactive),50.8 µM (inactive),47.5 µM (inactive),19 µM (inactive),–,45.9 µM (inactive),13.3 µM (inactive),23 µM (inactive),38.5 µM (inactive),59 µM (inactive)
CC1(C)CCC[C@]2(C)[C@H]3[C@H](C#N)c4cc(O)c(O)cc4O[C@@]3(C)CC[C@@H]12,> 10 µM (inactive),5.87 µM (inactive),> 10 µM (inactive),–,> 10 µM (inactive),> 10 µM (inactive),> 10 µM (inactive),> 10 µM (inactive),> 10 µM (inactive),> 10 µM (inactive),–,> 10 µM (inactive),–,–,> 10 µM (inactive),> 10 µM (inactive),–,> 10 µM (inactive)
C[n+]1c(-c2ccc(/C=N/NC(=O)C(=O)N/N=C/c3ccc(-c4cn5ccccc5[n+]4C)cc3)cc2)cn2ccccc21,> 100 µM (inactive),> 100 µM (inactive),> 100 µM (inactive),> 100 µM (inactive),> 100 µM (inactive),> 100 µM (inactive),> 100 µM (inactive),> 100 µM (inactive),–,> 100 µM (inactive),> 100 µM (inactive),> 100 µM (inactive),–,> 100 µM (inactive),> 100 µM (inactive),> 100 µM (inactive),> 100 µM (inactive),> 100 µM (inactive)
CCOC(=O)c1c(SCCN2CCCCC2)n(-c2ccccc2)c(=S)n(-c2ccccc2)c1=O,16.3 µM (inactive),18.2 µM (inactive),3 µM (inactive),16.6 µM (inactive),> 78.3 µM (inactive),5.85 µM (inactive),16.9 µM (inactive),> 10 µM (inactive),> 100 µM (inactive),> 100 µM (inactive),15.3 µM (inactive),2.28 µM (inactive),4.6 µM (inactive),> 54 µM (inactive),2.74 µM (inactive),2.99 µM (inactive),25.8 µM (inactive),–
CC1CNC(NS(=O)(=O)c2cc(C(=O)Nc3ccccc3)c(Cl)cc2S)=NN1 (stereo not drawn),–,77.8 µM (inactive),35.2 µM (inactive),97.3 µM (inactive),57 µM (inactive),36.5 µM (inactive),44.1 µM (inactive),6.24 µM (inactive),38.5 µM (inactive),22.2 µM (inactive),38.8 µM (inactive),49.8 µM (inactive),–,33.7 µM (inactive),31.4 µM (inactive),32.8 µM (inactive),43.2 µM (inactive),17.7 µM (inactive)
COc1cc(OC)c(-n2[nH]c(=O)n(C)c2=O)c(OC)c1,–,> 100 µM (inactive),> 100 µM (inactive),> 100 µM (inactive),> 100 µM (inactive),> 100 µM (inactive),> 100 µM (inactive),> 100 µM (inactive),–,> 100 µM (inactive),> 100 µM (inactive),> 100 µM (inactive),> 100 µM (inactive),> 100 µM (inactive),> 100 µM (inactive),> 100 µM (inactive),> 100 µM (inactive),> 100 µM (inactive)
CC(C)CNC(=O)Cn1c(-c2ccccc2)cc2ccccc21,–,> 100 µM (inactive),> 100 µM (inactive),> 100 µM (inactive),> 100 µM (inactive),> 100 µM (inactive),> 100 µM (inactive),> 100 µM (inactive),54.3 µM (inactive),> 100 µM (inactive),> 100 µM (inactive),> 100 µM (inactive),> 100 µM (inactive),> 100 µM (inactive),> 100 µM (inactive),> 100 µM (inactive),> 100 µM (inactive),–
